In one experiment the target is human orexin-2 receptor (Homo sapiens (Human), UniProt O43614). Briefly: In vitro assay: intracellular calcium measurements (FLIPR), antagonistic activity. Type of experiment: cell-based. The following applies: CHO cells expressing human orexin-2 receptor, orexin-A agonist, geometric mean, read-out: IC50 Ox2. The gist of the method:
(§1)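 Orexin-A-evoked calcium rise (3 nM final, roughly EC70) was recorded with fluo-4 in recombinant CHO cells, human receptor subtype 1 or 2.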
(Calcium flux is commonly read through the fluorescence of an indicator in the cells.)

A further experiment concerns the target human orexin-1 receptor (Homo sapiens (Human), UniProt O43613). The experiment is described as above. Type of experiment: cell-based. The conditions noted are these: CHO cells expressing human orexin-1 receptor, orexin-A agonist, geometric mean, read-out: IC50 Ox1. A digest of the protocol: as §1

This is an account of results in patent US9732075B2, “Benzimidazole-proline derivatives” (IDORSIA PHARMACEUTICALS LTD, priority 2012, dated 2017).

Sequence of human orexin-2 receptor (O43614 whole entry): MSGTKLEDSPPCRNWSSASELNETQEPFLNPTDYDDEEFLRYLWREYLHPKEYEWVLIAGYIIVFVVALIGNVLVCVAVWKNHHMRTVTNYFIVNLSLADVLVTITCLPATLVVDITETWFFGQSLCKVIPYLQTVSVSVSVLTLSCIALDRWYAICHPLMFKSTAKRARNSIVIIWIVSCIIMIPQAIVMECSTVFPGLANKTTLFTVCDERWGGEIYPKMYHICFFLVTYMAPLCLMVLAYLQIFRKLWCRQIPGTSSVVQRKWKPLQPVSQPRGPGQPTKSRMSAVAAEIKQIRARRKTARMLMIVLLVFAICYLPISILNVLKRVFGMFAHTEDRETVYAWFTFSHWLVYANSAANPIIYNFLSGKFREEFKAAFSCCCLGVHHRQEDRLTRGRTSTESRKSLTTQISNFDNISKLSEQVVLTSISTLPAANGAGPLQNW
Sequence of human orexin-1 receptor (O43613 whole entry): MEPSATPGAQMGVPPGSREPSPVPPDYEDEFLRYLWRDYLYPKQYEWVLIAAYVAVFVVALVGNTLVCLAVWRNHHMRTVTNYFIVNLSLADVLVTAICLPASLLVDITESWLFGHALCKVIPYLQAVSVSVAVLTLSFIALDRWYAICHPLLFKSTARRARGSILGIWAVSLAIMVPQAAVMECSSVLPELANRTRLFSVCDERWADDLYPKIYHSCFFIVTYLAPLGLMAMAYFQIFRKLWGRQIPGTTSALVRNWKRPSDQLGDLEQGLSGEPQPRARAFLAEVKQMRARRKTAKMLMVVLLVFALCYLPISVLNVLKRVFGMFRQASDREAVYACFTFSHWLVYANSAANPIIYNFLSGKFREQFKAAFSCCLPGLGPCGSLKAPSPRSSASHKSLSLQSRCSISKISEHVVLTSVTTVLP

Usually IC50 stands for the point on the concentration scale where inhibition reaches its midpoint. `COc1ccc(-n2nccn2)c(C(=O)N2CC[C@H](C)[C@H]2c2nc3c(C)c(Cl)ccc3[nH]2)c1` [Ex. 4.66]: the 50% inhibitory concentration (IC50) was found to be 23 nM on human orexin-2 receptor and 1 nM on human orexin-1 receptor.

For the compound `Cc1nc(C(=O)N2CC[C@H](C)[C@H]2c2nc3c(C)c(Cl)ccc3[nH]2)c(-c2cc(F)cc(F)c2)s1` [Ex. 4.67], the results for the IC50 on human orexin-2 receptor and at human orexin-1 receptor were 251 nM and 0.9 nM, respectively.

As for `COc1ccc(-c2sc(C)nc2C(=O)N2CC[C@H](C)[C@H]2c2nc3c(C)c(Cl)ccc3[nH]2)cn1` [Ex. 4.69], the IC50 on human orexin-2 receptor turned out to be 191 nM; on human orexin-1 receptor it was 2 nM.

Regarding `Cc1nc(C(=O)N2CC[C@H](C)[C@H]2c2nc3c(C)c(Cl)ccc3[nH]2)c(-c2ccc(F)cc2)s1` [Ex. 4.70], the IC50 on human orexin-2 receptor amounted to 404 nM; on human orexin-1 receptor, 0.6 nM.

Take `Cc1cc2[nH]c([C@@H]3[C@@H](C)CCN3C(=O)c3cc(Cl)ccc3-n3nccn3)nc2cc1Cl` [Ex. 4.71]: the values for the IC50 on human orexin-2 receptor and on human orexin-1 receptor were 133 nM and 7 nM, respectively.

In the case of `Cc1ccc(C(=O)N2CC[C@H](C)[C@H]2c2nc3cc(Cl)c(C)cc3[nH]2)c(-n2nccn2)c1` [Ex. 4.72], the figures for the IC50 on human orexin-2 receptor and at human orexin-1 receptor were 51 nM and 4 nM, respectively.

On to `Cc1ccc(-n2cccn2)c(C(=O)N2CC[C@H](C)[C@H]2c2nc3cc(Cl)c(C)cc3[nH]2)c1` [Ex. 4.73], for which the IC50 came out at 1290 nM at human orexin-2 receptor and 17 nM at human orexin-1 receptor.

`COc1ccc(-n2nccn2)c(C(=O)N2CC[C@H](C)[C@H]2c2nc3cc(Cl)c(C)cc3[nH]2)c1` [Ex. 4.74]: the IC50 at human orexin-2 receptor stood at 78 nM; at human orexin-1 receptor, 4 nM.

Take `Cc1cc2[nH]c([C@@H]3[C@@H](C)CCN3C(=O)c3c(-n4nccn4)ccc(C)c3F)nc2cc1Cl` [Ex. 4.75]: the figures for the IC50 on human orexin-2 receptor and on human orexin-1 receptor were 636 nM and 8 nM, respectively.

With `Cc1cc2[nH]c([C@@H]3[C@@H](C)CCN3C(=O)c3ccccc3-n3nccn3)nc2cc1Cl` [Ex. 4.76], the values for the IC50 at human orexin-2 receptor and on human orexin-1 receptor were 113 nM and 8 nM, respectively.

Regarding `Cc1ccc(-c2ccccc2C(=O)N2CC[C@H](C)[C@H]2c2nc3cc(Cl)c(C)cc3[nH]2)cc1` [Ex. 4.77], the half-inhibitory concentration (IC50) at human orexin-2 receptor amounted to 790 nM; on human orexin-1 receptor, 5 nM.

As for `Cc1nc(C(=O)N2CC[C@H](C)[C@H]2c2nc3cc(Cl)c(C)cc3[nH]2)c(-c2ccc(Cl)cc2)s1` [Ex. 4.78], the IC50 on human orexin-2 receptor is 1630 nM; on human orexin-1 receptor, 3 nM.

As to `Cc1ccc(-c2nc(C)sc2C(=O)N2CC[C@H](C)[C@H]2c2nc3cc(Cl)c(C)cc3[nH]2)cc1` [Ex. 4.79], the values for the IC50 at human orexin-2 receptor and at human orexin-1 receptor were 541 nM and 18 nM, respectively.

On to `Cc1nc(C(=O)N2CC[C@H](C)[C@H]2c2nc3cc(Cl)c(C)cc3[nH]2)c(-c2cc(F)cc(F)c2)s1` [Ex. 4.80], for which the IC50 at human orexin-2 receptor was found to be 2020 nM; on human orexin-1 receptor it was 3 nM.

Consider `Cc1cc2nc([C@@H]3[C@@H](C)CCN3C(=O)c3cc(Cl)ccc3-n3nccn3)[nH]c2cc1C` [Ex. 4.81], for which the values for the IC50 on human orexin-2 receptor and on human orexin-1 receptor were 79 nM and 4 nM, respectively.

`Cc1ccc(C(=O)N2CC[C@H](C)[C@H]2c2nc3cc(C)c(C)cc3[nH]2)c(-n2nccn2)c1` [Ex. 4.82]: the IC50 on human orexin-2 receptor stood at 32 nM; on human orexin-1 receptor it was 4 nM.

In the case of `Cc1ccc(-n2cccn2)c(C(=O)N2CC[C@H](C)[C@H]2c2nc3cc(C)c(C)cc3[nH]2)c1` [Ex. 4.83], the IC50 on human orexin-2 receptor came out at 2320 nM; at human orexin-1 receptor, 159 nM.

In the case of `COc1ccc(-n2nccn2)c(C(=O)N2CC[C@H](C)[C@H]2c2nc3cc(C)c(C)cc3[nH]2)c1` [Ex. 4.84], the IC50 on human orexin-2 receptor was 58 nM; on human orexin-1 receptor, 8 nM.

In the case of `Cc1cc2nc([C@@H]3[C@@H](C)CCN3C(=O)c3ccccc3-n3nccn3)[nH]c2cc1C` [Ex. 4.85], the IC50 worked out at 43 nM on human orexin-2 receptor and 7 nM at human orexin-1 receptor.

With `Cc1ccc(-c2ccccc2C(=O)N2CC[C@H](C)[C@H]2c2nc3cc(C)c(C)cc3[nH]2)cc1` [Ex. 4.86], the IC50 on human orexin-2 receptor turned out to be 352 nM; at human orexin-1 receptor it was 7 nM.

As to `Cc1nc(C(=O)N2CC[C@H](C)[C@H]2c2nc3cc(C)c(C)cc3[nH]2)c(-c2ccc(Cl)cc2)s1` [Ex. 4.87], the IC50 on human orexin-2 receptor amounted to 2080 nM; at human orexin-1 receptor, 4 nM.
